Results: ChEMBL document CHEMBL1148361, “Total synthesis and anti-tubulin activity of epi-c3 analogues of cryptophycin-24” (J Med Chem, 2004)
Values belong to the compound of their own block, whether it stands above or below them.

Columns and labels:
[1] = In vitro inhibitory activity of compound against microtubule polymerization in a tubulin assembly assay; type: functional
MCF7 = assay: In vitro inhibitory activity of compound against induced cytotoxicity in MCF-7 cell line; type: functional, cell-based, Homo sapiens
NCI/ADR-RES = assay: In vitro inhibitory activity of compound against induced cytotoxicity in multidrug-resistant MCF-7/ADR breast cancer cell line; type: functional, cell-based, Homo sapiens
[2] = Resistance factor was expressed as the IC50 of resistance cell line / IC50 of sensitive cell line; type: functional

SMILES: COc1ccc(C[C@H]2NC(=O)/C=C/C[C@@H]([C@H](C)[C@H]3O[C@@H]3c3ccccc3)OC(=O)[C@H](CC(C)C)OC(=O)[C@H](C)CNC2=O)cc1Cl [CRYPTOPHYCIN A]
- IC50 [1]: 3400 nM
- IC50 (MCF7; Homo sapiens, MCF7): 0.009 nM
- IC50 (NCI/ADR-RES; Homo sapiens, NCI/ADR-RES): 0.018 nM
- Resistance factor [2]: 2

- IC50 [1]: > 100000 nM
SMILES: COc1ccc(C[C@H]2NC(=O)/C=C/C[C@@H]([C@H](C)/C=C/c3ccccc3)OC(=O)[C@@H](CC(C)C)OC(=O)CCNC2=O)cc1Cl
- IC50 (MCF7; Homo sapiens, MCF7): > 25 nM
- IC50 (NCI/ADR-RES; Homo sapiens, NCI/ADR-RES): > 25 nM

SMILES: COc1ccc(C[C@H]2NC(=O)/C=C/C[C@@H](C(C)[C@H]3O[C@@H]3c3ccccc3)OC(=O)[C@H](CC(C)C)OC(=O)CCNC2=O)cc1 (single isomer, unassigned) [ARENASTATIN A]
- IC50 [1]: 15800 nM
- IC50 (MCF7; Homo sapiens, MCF7): 0.13 nM
- IC50 (NCI/ADR-RES; nci/adr-res): 250 nM
- Resistance factor [2]: 1.9

SMILES: COc1ccc(C[C@H]2NC(=O)/C=C/C[C@@H](C(C)[C@H]3O[C@@H]3c3ccccc3)OC(=O)C(CC(C)C)OC(=O)CCNC2=O)cc1 (single isomer, unassigned) [ARENASTATIN A]
- IC50 [1]: 13700 nM
- IC50 (MCF7; mcf7): 88 nM
- IC50 (NCI/ADR-RES; nci/adr-res): 2400 nM
- Resistance factor [2]: 27.3

- IC50 [1]: > 100000 nM
SMILES: COc1ccc(C[C@H]2NC(=O)/C=C/C[C@@H]([C@H](C)/C=C/c3ccccc3)OC(=O)[C@@H](CC(C)C)OC(=O)CCNC2=O)cc1
- IC50 (MCF7; Homo sapiens, MCF7): > 25 nM
- IC50 (NCI/ADR-RES; Homo sapiens, NCI/ADR-RES): > 25 nM

SMILES: COc1ccc(C[C@H]2NC(=O)/C=C/CC(C(C)C3OC3c3ccccc3)OC(=O)[C@@H](CC(C)C)OC(=O)CCNC2=O)cc1Cl (single isomer, unassigned)
- IC50 [1]: 10600 nM
- IC50 (MCF7; Homo sapiens, MCF7): 0.28 nM
- IC50 (NCI/ADR-RES; Homo sapiens, NCI/ADR-RES): 0.92 nM
- Resistance factor [2]: 3.3
